Laboratory results published in the Kinase Knowledgebase extract (Sharma et al. 2016).

Target: PIK3CA (human) (UniProt P42336)
Experiment: Inhibition of PIK3CA Kinase Activity

Chain of PIK3CA (human) (P42336 whole entry, looked up): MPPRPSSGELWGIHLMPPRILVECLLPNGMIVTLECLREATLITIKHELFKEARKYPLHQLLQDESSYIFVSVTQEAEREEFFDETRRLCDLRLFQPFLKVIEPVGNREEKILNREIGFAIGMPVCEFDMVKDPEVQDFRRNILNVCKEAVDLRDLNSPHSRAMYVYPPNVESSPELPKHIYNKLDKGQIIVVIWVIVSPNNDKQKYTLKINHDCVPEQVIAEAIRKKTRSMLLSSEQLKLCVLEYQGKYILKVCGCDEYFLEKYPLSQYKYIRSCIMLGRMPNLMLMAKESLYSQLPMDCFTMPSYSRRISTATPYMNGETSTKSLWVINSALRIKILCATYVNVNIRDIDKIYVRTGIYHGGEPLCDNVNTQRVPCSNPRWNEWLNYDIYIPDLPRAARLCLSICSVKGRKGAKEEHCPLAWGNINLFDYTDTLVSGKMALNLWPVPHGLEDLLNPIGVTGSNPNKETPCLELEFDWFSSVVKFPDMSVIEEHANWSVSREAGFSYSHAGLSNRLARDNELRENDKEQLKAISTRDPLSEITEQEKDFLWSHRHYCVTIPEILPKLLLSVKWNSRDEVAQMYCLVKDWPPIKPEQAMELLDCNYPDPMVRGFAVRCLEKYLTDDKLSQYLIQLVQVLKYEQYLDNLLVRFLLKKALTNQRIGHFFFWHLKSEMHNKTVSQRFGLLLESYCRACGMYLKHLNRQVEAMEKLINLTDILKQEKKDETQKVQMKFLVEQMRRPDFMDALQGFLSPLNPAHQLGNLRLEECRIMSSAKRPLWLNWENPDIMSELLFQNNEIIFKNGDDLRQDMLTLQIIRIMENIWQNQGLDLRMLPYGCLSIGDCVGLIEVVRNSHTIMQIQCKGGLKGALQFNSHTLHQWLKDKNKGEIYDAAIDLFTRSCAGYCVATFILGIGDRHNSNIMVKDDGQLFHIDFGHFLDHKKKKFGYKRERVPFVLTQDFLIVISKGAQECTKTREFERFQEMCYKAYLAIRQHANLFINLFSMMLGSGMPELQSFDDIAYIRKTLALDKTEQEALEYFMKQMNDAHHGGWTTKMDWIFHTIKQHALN

IC50 [nM]	IC80 [nM]	Compound
1650		CC(=O)Nc1ccc(-c2nc(N3CCOCC3)c3cnn(C4CCCCO4)c3n2)cc1 (centres undefined)
1700		Clc1ccccc1CN1CCC(n2ncc3c(N4CCOCC4)nc(-c4ccc5[nH]ccc5c4)nc32)CC1
66		CNC(=O)Nc1ccc(-c2nc(N3CCOCC3)c3cnn(C4CCN(C(N)=O)CC4)c3n2)cc1
1750		O=C(c1ccc(F)cc1)N1CCC(n2ncc3c(N4CCOCC4)nc(-c4ccc5[nH]ccc5c4)nc32)CC1
32		CC(C)(C)OC(=O)N1CCC(n2ncc3c(N4CCOCC4)nc(-c4ccc(NC(=O)Nc5cccnc5)cc4)nc32)CC1
357		NC(=O)Cc1cccc(-c2nc(N3CCOCC3)c3cnn(-c4ccccc4)c3n2)c1
8570		c1ccc(CN2CCC(n3ncc4c(N5CCOCC5)nc(-c5ccc(-c6ccccc6)cc5)nc43)CC2)cc1
80		CNC(=O)Nc1ccc(-c2nc(N3CCOCC3)c3cnn(C4=CC[S+]([O-])CC4)c3n2)cc1 (centres undefined)
	84	NC(=O)Nc1ccc(-c2nc(N3CCOCC3)c3cnn(C4CCN(C(=O)c5ccccc5)CC4)c3n2)cc1
9130		CN(C)c1cccc(-c2nc(N3CCOCC3)c3cnn(C4CCN(Cc5ccccc5)CC4)c3n2)c1
10000		c1cc2cc(-c3nc(N4CCOCC4)c4cnn([C@H]5CCCNC5)c4n3)ccc2[nH]1
10000		O=C(O)c1cccc(-c2nc(N3CCOCC3)c3cnn(C4CCN(Cc5ccccc5)CC4)c3n2)c1
8770		c1ccc(CN2CCC(n3ncc4c(N5CCOCC5)nc(-c5cccc6c5sc5ccccc56)nc43)CC2)cc1
1560		CNC(=O)Nc1ccc(-c2nc(N3CCOCC3)c3cnn(C4CCN(COC)CC4)c3n2)cc1
10000		c1cc2cc(-c3nc(N4CCOCC4)c4cnn([C@@H]5CCCNC5)c4n3)ccc2[nH]1
440		c1ccc(-n2ncc3c(N4CCOCC4)nc(-c4cncnc4)nc32)cc1
74		CNC(=O)Nc1ccc(-c2nc(N3CCOCC3)c3cnn(C4=CCS(=O)(=O)CC4)c3n2)cc1
8200		c1ccc(CN2CCC(n3ncc4c(N5CCOCC5)nc(-c5ccc6ccccc6c5)nc43)CC2)cc1
480		CN(C)C(=O)C=CCN1CCC(n2ncc3c(N4CCOCC4)nc(-c4ccc5[nH]ccc5c4)nc32)CC1
1430		O=C(c1cccc(C(F)(F)F)c1)N1CCC(n2ncc3c(N4CCOCC4)nc(-c4ccc5[nH]ccc5c4)nc32)CC1
999		COC(=O)Nc1ccc(-c2nc(N3CCOCC3)c3cnn(C4CCN(C(=O)c5ccc(C#N)cc5)CC4)c3n2)cc1
10000		c1ccc(CN2CCC(n3ncc4c(N5CCOCC5)nc(-c5cccc6ccccc56)nc43)CC2)cc1
10000		c1ccc(-n2ncc3c(N4CCOCC4)nc(-c4csc5ccccc45)nc32)cc1
1200		COC(=O)Nc1ccc(-c2nc(N3CCOCC3)c3cnn(C4CCN(Cc5ccc(F)nc5)CC4)c3n2)cc1
10000		c1ccc(CN2CCC(n3ncc4c(N5CCOCC5)nc(-c5cccc(-c6ccccc6)c5)nc43)CC2)cc1
6720		CCOC(=O)Nc1ccc(-c2nc(N3CCOCC3)c3cnn(C4CCN(C(=O)OCC)CC4)c3n2)cc1
14		CNC(=O)Nc1ccc(-c2nc(N3CCOCC3)c3cn[nH]c3n2)cc1
10000		CN(C)C(=O)c1ccc(-c2nc(N3CCOCC3)c3cnn(C4CCN(Cc5ccccc5)CC4)c3n2)cc1

Compound	IC50 [nM]	IC80 [nM]
Nc1ccc(-c2nc(N3CCOCC3)c3cn[nH]c3n2)cc1	1610	
